The text below walks through data of patent publication US12180207B2 (ARRAY BIOPHARMA INC., priority 2018, dated 2024).

This assay deals with dephosphorylated FGFR2 (Homo sapiens (Human), UniProt P21802). Kind of assay: FGFR enzyme binding assay (HTRF tracer displacement), FGFR2. The following applies: 5 nM dephosphorylated FGFR2, average of multiple determinations if made. The method, then:
The potency of compounds inhibiting human isoforms of FGFR kinase was determined using Life Technologies' Homogeneous Time Resolved Fluorescence (HTRF)-based binding assay technology. […] After a 60 minute incubation at 22° C., the extent of tracer displacement was determined using a PerkinElmer EnVision multimode plate reader via HTRF dual wavelength detection, and the percent of control (POC) was calculated using a ratiometric emission factor. One hundred POC was determined using no test compound, and 0 POC was determined in the presence of 1 μM of an appropriate control inhibitor.
In general terms: TR-FRET usually uses a lanthanide donor and a delayed reading to cut background.

Chain of dephosphorylated FGFR2 (P21802 22-821): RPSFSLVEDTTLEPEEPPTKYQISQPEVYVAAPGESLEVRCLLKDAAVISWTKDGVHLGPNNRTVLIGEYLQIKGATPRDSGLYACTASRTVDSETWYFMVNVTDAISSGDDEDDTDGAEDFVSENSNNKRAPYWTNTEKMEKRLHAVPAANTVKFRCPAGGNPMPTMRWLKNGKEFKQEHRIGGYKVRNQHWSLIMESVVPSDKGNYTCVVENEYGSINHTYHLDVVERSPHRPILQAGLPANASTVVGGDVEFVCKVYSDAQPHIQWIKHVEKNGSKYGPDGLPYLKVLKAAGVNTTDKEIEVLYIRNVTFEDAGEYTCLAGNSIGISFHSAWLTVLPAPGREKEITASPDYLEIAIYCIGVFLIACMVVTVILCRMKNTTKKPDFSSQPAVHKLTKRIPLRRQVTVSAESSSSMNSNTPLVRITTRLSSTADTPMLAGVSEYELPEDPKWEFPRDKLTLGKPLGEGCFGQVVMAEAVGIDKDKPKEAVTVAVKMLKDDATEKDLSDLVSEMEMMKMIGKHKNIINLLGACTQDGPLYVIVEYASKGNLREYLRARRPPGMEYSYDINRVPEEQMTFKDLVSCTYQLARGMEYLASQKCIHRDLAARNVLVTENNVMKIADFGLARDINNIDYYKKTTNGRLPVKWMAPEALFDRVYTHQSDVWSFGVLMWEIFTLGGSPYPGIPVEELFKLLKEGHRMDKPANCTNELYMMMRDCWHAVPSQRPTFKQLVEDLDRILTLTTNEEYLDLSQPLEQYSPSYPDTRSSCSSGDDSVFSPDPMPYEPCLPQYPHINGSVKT

In the case of `C=CC(=O)N1CC(OC)(C(=O)N2CCC(n3nc(C)c(-c4cc(OC)c5c(C#N)cnn5c4)c3C)CC2)C1` [Example 95, 6-(1-(1-(1-acryloyl-3-methoxyazetidine-3-carbonyl)piperidin-4-yl)-3,5-dimethyl-1H-pyrazol-4-yl)-4-methoxypyrazolo[1,5-a]pyridine-3-carbonitrile], the IC50 was determined as 155 nM.
The molecule `C=CC(=O)N1CC(C(=O)N2CCC3(C2)CN(c2ccc(-c4cc(OC)c5c(C#N)cnn5c4)cn2)C3)C1` [Example 103, 6-(6-(6-(1-acryloylazetidine-3-carbonyl)-2,6-diazaspiro[3.4]octan-2-yl)pyridin-3-yl)-4-methoxypyrazolo[1,5-a]pyridine-3-carbonitrile] displayed an IC50 of 39 nM. This IC50 lies about 4-fold lower than the previous one.
The molecule `C=CC(=O)N1CC(C(=O)N2CC3(C2)CN(c2ccc(-c4cc(OC)c5c(C#N)cnn5c4)cn2)C3)C1` [Example 104, 6-(6-(6-(1-acryloylazetidine-3-carbonyl)-2,6-diazaspiro[3.3]heptan-2-yl)pyridin-3-yl)-4-methoxypyrazolo[1,5-a]pyridine-3-carbonitrile] showed an IC50 of 45 nM.
With `C=CC(=O)N1CC(C(=O)N2CC3CC(C2)N3c2ccc(-c3cc(OC)c4c(C#N)cnn4c3)cn2)C1` [Example 105, 6-(6-(3-(1-acryloylazetidine-3-carbonyl)-3,6-diazabicyclo[3.1.1]heptan-6-yl)pyridin-3-yl)-4-methoxypyrazolo[1,5-a]pyridine-3-carbonitrile] the figure was 226 nM; with `C=CC(=O)N1CC(C(=O)N2C[C@H]3C[C@@H]2CN3c2ccc(-c3cc(OC)c4c(C#N)cnn4c3)cn2)C1` [Example 107, 6-(6-((1R,4R)-5-(1-acryloylazetidine-3-carbonyl)-2,5-diazabicyclo[2.2.1]heptan-2-yl)pyridin-3-yl)-4-methoxypyrazolo[1,5-a]pyridine-3-carbonitrile], 56 nM.
With `C=CC(=O)N1CC(F)(C(=O)N2CCN(c3ccc(-c4cc(OC)c5c(C#N)cnn5c4)cn3)CC2)C1` [Example 112, 6-(6-(4-(1-acryloyl-3-fluoroazetidine-3-carbonyl)piperazin-1-yl)pyridin-3-yl)-4-methoxypyrazolo[1,5-a]pyridine-3-carbonitrile] the figure was 16 nM.
Consider `C=CC(=O)N1CC(CN2CCC(n3ncc(-c4cc(OC)c5c(Cl)cnn5c4)c3C)CC2)C1(C)C` (centres unmarked) [Example 120, 1-(3-((4-(4-(3-chloro-4-methoxypyrazolo[1,5-a]pyridin-6-yl)-5-methyl-1H-pyrazol-1-yl)piperidin-1-yl)methyl)-2,2-dimethylazetidin-1-yl)prop-2-en-1-one], for which the IC50 was 84 nM.
For `C=CC(=O)N1CC(F)(C(=O)N2CCC(n3cc(-c4cc(OC)c5c(Cl)cnn5c4)cn3)CC2)C1` [Example 121, 1-(3-(4-(4-(3-chloro-4-methoxypyrazolo[1,5-a]pyridin-6-yl)-1H-pyrazol-1-yl)piperidine-1-carbonyl)-3-fluoroazetidin-1-yl)prop-2-en-1-one], the IC50 was 12 nM.
`COc1cc(-c2cnn(C3CCN(C(=O)C4CN(C(=O)C5=CCC5)C4)CC3)c2)cn2ncc(C#N)c12` [Example 137, 6-(1-(1-(1-(cyclobut-1-ene-1-carbonyl)azetidine-3-carbonyl)piperidin-4-yl)-1H-pyrazol-4-yl)-4-methoxypyrazolo[1,5-a]pyridine-3-carbonitrile] had a 50% inhibitory concentration (IC50) of 15 nM. This IC50 and that of the molecule before are within 1.5-fold of each other.
Molecule `COc1cc(-c2cnn(C3CCN(C(=O)C4CN(C(=O)/C=C/CO)C4)CC3)c2)cn2ncc(C#N)c12` [Example 141, (E)-6-(1-(1-(1-(4-hydroxybut-2-enoyl)azetidine-3-carbonyl)piperidin-4-yl)-1H-pyrazol-4-yl)-4-methoxypyrazolo [1,5-a]pyridine-3-carbonitrile] registered a half-inhibitory concentration (IC50) of 18 nM.
Then `C=CC(=O)N1CC(CN2CCC(n3ncc(-c4cc(OC)c5c(C#N)cnn5c4)c3C)CC2)C1(C)C` (centres unmarked) [Example 151, 6-(1-(1-((1-acryloyl-2,2-dimethylazetidin-3-yl)methyl)piperidin-4-yl)-5-methyl-1H-pyrazol-4-yl)-4-methoxypyrazolo [1,5-a]pyridine-3-carbonitrile], with 38 nM; and `COc1cc(-c2cnn(C3CCN(C(=O)C4CN(C(=O)/C=C/CN(C)C)C4)CC3)c2C)cn2ncc(C#N)c12` [Example 152, (E)-6-(1-(1-(1-(4-(dimethylamino)but-2-enoyl)azetidine-3-carbonyl)piperidin-4-yl)-5-methyl-1H-pyrazol-4-yl)-4-methoxypyrazolo [1,5-a]pyridine-3-carbonitrile], with 49 nM; and `COc1cc(-c2cnn(C3CCN(C(=O)C4(F)CN(C(=O)/C=C/C(F)(F)F)C4)CC3)c2C)cn2ncc(C#N)c12` [Example 155, (E)-6-(1-(1-(3-fluoro-1-(4,4,4-trifluorobut-2-enoyl)azetidine-3-carbonyl)piperidin-4-yl)-5-methyl-1H-pyrazol-4-yl)-4-methoxypyrazolo [1,5-a]pyridine-3-carbonitrile], with 51 nM.
With `COc1cc(-c2cnn(C3CCN(C(=O)C4(C)CN(C(=O)/C=C/CN(C)C)C4)CC3)c2C)cn2ncc(C#N)c12` [Example 157, (E)-6-(1-(1-(1-(4-(dimethylamino)but-2-enoyl)-3-methylazetidine-3-carbonyl)piperidin-4-yl)-5-methyl-1H-pyrazol-4-yl)-4-methoxypyrazolo [1,5-a]pyridine-3-carbonitrile] the figure was 6 nM; with `COc1cc(-c2cnn(C3CN(C(=O)C4(F)CN(C(=O)/C=C/CN(C)C)C4)C3)c2C)cn2ncc(C#N)c12` [Example 160, (E)-6-(1-(1-(1-(4-(dimethylamino)but-2-enoyl)-3-fluoroazetidine-3-carbonyl)azetidin-3-yl)-5-methyl-1H-pyrazol-4-yl)-4-methoxypyrazolo [1,5-a]pyridine-3-carbonitrile], 33 nM.
`CCc1c(-c2cc(OC)c3c(C#N)cnn3c2)cnn1C1CCN(C(=O)C2(F)CN(C(=O)/C=C/CN(C)C)C2)CC1` [Example 162, (E)-6-(1-(1-(1-(4-(dimethylamino)but-2-enoyl)-3-fluoroazetidine-3-carbonyl)piperidin-4-yl)-5-ethyl-1H-pyrazol-4-yl)-4-methoxypyrazolo [1,5-a]pyridine-3-carbonitrile] had a concentration for half-maximal inhibition (IC50) of 462 nM. This IC50 is about 14-fold higher than that of the molecule before.
With `COc1cc(-c2nn(C3CCN(C(=O)C4(F)CN(C(=O)/C=C/CN(C)C)C4)CC3)nc2C)cn2ncc(C#N)c12` [Example 163, (E)-6-(2-(1-(1-(4-(dimethylamino)but-2-enoyl)-3-fluoroazetidine-3-carbonyl)piperidin-4-yl)-5-methyl-2H-1,2,3-triazol-4-yl)-4-methoxypyrazolo [1,5-a]pyridine-3-carbonitrile] the figure was 125 nM; with `COc1cc(-c2ccc(N3CCN(C(=O)C4(F)CN(C(=O)/C=C/CN(C)C)C4)CC3)nc2C)cn2ncc(C#N)c12` [Example 168, (E)-6-(6-(4-(1-(4-(dimethylamino)but-2-enoyl)-3-fluoroazetidine-3-carbonyl)piperazin-1-yl)-2-methylpyridin-3-yl)-4-methoxypyrazolo [1,5-a]pyridine-3-carbonitrile], 219 nM; with `C=CC(=O)N1CC(O)(C(=O)N2CCC(n3ncc(-c4cc(OC)c5c(Cl)cnn5c4)c3C)CC2)C1` [Example 172, 1-(3-(4-(4-(3-chloro-4-methoxypyrazolo [1,5-a]pyridin-6-yl)-5-methyl-1H-pyrazol-1-yl)piperidine-1-carbonyl)-3-hydroxyazetidin-1-yl)prop-2-en-1-one], 125 nM.
Take `COc1cc(-c2cnn(C3CCN(CC4(OC)CN(C(=O)/C=C/CN(C)C)C4)CC3)c2C)cn2ncc(Cl)c12` [Example 173, (E)-1-(3-((4-(4-(3-chloro-4-methoxypyrazolo [1,5-a]pyridin-6-yl)-5-methyl-1H-pyrazol-1-yl)piperidin-1-yl)methyl)-3-methoxyazetidin-1-yl)-4-(dimethylamino)but-2-en-1-one]: the IC50 is 45 nM.
With `COc1cc(-c2cnn(C3CCN(C(=O)C4CN(C(=O)/C=C/CN5CC[C@H](F)C5)C4)CC3)c2)cn2ncc(C#N)c12` [Example 182, (S,E)-6-(1-(1-(1-(4-(3-fluoropyrrolidin-1-yl)but-2-enoyl)azetidine-3-carbonyl)piperidin-4-yl)-1H-pyrazol-4-yl)-4-methoxypyrazolo[1,5-a]pyridine-3-carbonitrile] the figure was 15 nM; with `COc1cc(-c2cnn(C3CCN(C(=O)C4CN(C(=O)/C=C/CN5CC[C@@H](F)C5)C4)CC3)c2)cn2ncc(C#N)c12` [Example 183, (R,E)-6-(1-(1-(1-(4-(3-fluoropyrrolidin-1-yl)but-2-enoyl)azetidine-3-carbonyl)piperidin-4-yl)-1H-pyrazol-4-yl)-4-methoxypyrazolo[1,5-a]pyridine-3-carbonitrile], 19 nM; with `COc1cc(-c2cnn(C3CCN(C(=O)C4CN(C(=O)/C=C/CN5CCOCC5)C4)CC3)c2)cn2ncc(C#N)c12` [Example 184, (E)-4-methoxy-6-(1-(1-(1-(4-morpholinobut-2-enoyl)azetidine-3-carbonyl)piperidin-4-yl)-1H-pyrazol-4-yl)pyrazolo[1,5-a]pyridine-3-carbonitrile], 20 nM.

Broadly, the IC50 is the midpoint of a concentration-inhibition curve. A high value points to a need for much substance.
